In US4864023A, “Pyrido(3,2,1-IJ)-1,3,4-benzoxadiazine derivatives” (priority 1988, dated 1989):
≈ marks a conversion by molar mass, not a printed value. Like-named read-outs stand apart in the source and are kept apart here.

Assays:
Experiment in all cases: in vitro antibacterial activity, standard agar dilution method
Assay type in all cases: cell-based
[1] = tested on: Bacillus subtilis PCI 219; conditions: PCI219, aerobic, read-out: minimum inhibitory concentration (MIC)
[2] = tested on: Staphylococcus aureus FDA 209P JC-1; conditions: FDA209P, read-out: minimum inhibitory concentration (MIC)
[3] = tested on: Staphylococcus aureus NR 2855; conditions: NR2855; Staphylococcus aureus NR 2855; aerobic; agar dilution; read-out: minimum inhibitory concentration (MIC)
[4] = tested on: Staphylococcus aureus Smith; conditions: read-out: minimum inhibitory concentration (MIC)
[5] = tested on: Staphylococcus epidermidis IFO 12993; conditions: IFO12993, aerobic, read-out: minimum inhibitory concentration (MIC)
[6] = tested on: Staphylococcus epidermidis NR 2942; conditions: NR2942, aerobic, read-out: minimum inhibitory concentration (MIC)
[7] = tested on: Enterococcus faecalis NR 2943; conditions: NR2943, aerobic, read-out: minimum inhibitory concentration (MIC)
[8] = tested on: Alcaligenes faecalis IFO 13111; conditions: IFO13111, aerobic, read-out: minimum inhibitory concentration (MIC)
[9] = tested on: Citrobacter freundii IFO 12681; conditions: IFO12681, aerobic, read-out: minimum inhibitory concentration (MIC)
[10] = tested on: Enterobacter aerogenes NR 2945; conditions: Klebsiella aerogenes, NR2945, aerobic, read-out: minimum inhibitory concentration (MIC)
[11] = tested on: Enterobacter cloacae NR 2946; conditions: NR2946, aerobic, read-out: minimum inhibitory concentration (MIC)
[12] = tested on: Escherichia coli NIHJ JC-2; conditions: NIHJJC2, aerobic, read-out: minimum inhibitory concentration (MIC)
Escherichia coli NR 2630 = conditions: NR2630; Escherichia coli NR 2630; aerobic; agar dilution; read-out: minimum inhibitory concentration (MIC)
[13] = tested on: Klebsiella pneumoniae FDA PCI 602; conditions: FDAPCI602, aerobic, read-out: minimum inhibitory concentration (MIC)
[14] = tested on: Bordetella bronchiseptica ATCC 4617; conditions: ATCC4617, aerobic, read-out: minimum inhibitory concentration (MIC)
[15] = tested on: Proteus rettgeri ATCC 14505; conditions: Providencia rettgeri, ATCC14505, aerobic, read-out: minimum inhibitory concentration (MIC)
[16] = tested on: Proteus vulgaris OX19 ATCC 6898; conditions: ATCC6898, aerobic, read-out: minimum inhibitory concentration (MIC)
[17] = tested on: Pseudomonas aeruginosa A3; conditions: aerobic, read-out: minimum inhibitory concentration (MIC)
[18] = tested on: Pseudomonas aeruginosa NR 2950; conditions: NR2950, aerobic, read-out: minimum inhibitory concentration (MIC)
[19] = tested on: Pseudomonas stutzeri IFO 12695; conditions: Stutzerimonas stutzeri, IFO12695, aerobic, read-out: minimum inhibitory concentration (MIC)
[20] = tested on: Serratia marcescens IFO 12648; conditions: IFO12648, aerobic, read-out: minimum inhibitory concentration (MIC)
[21] = tested on: Salmonella typhimurium IFO 12529; conditions: Salmonella enterica, aerobic, read-out: minimum inhibitory concentration (MIC)
[22] = Staphylococcus aureus FDA 209P JC-1, aerobic, agar dilution
[23] = Staphylococcus aureus Smith, aerobic, agar dilution

Compound | MIC [1] [µg/mL] | MIC [2, 22] [µg/mL] | MIC [3] [µg/mL] | MIC [5] [µg/mL] | MIC [6] [µg/mL] | MIC [7] [µg/mL] | MIC [8] [µg/mL] | MIC [9] [µg/mL] | MIC [10] [µg/mL] | MIC [11] [µg/mL] | MIC [12] [µg/mL] | MIC [13] [µg/mL] | MIC [14] [µg/mL] | MIC [15] [µg/mL] | MIC [16] [µg/mL] | MIC [17] [µg/mL] | MIC [18] [µg/mL] | MIC [19] [µg/mL] | MIC [20] [µg/mL] | MIC [21] [µg/mL] | also measured
CN1COc2c(N3CCN(Cc4ccc(N)cc4)CC3)c(F)cc3c(=O)c(C(=O)O)cn1c23 [Example 53, 10-[4-(4-aminobenzyl)-1-piperazinyl]-9-fluoro-3-methyl-7-oxo-2,3-dihydro-7H-pyrido[3,2,1-ij]-1,3,4-benzoxadiazine-6-carboxylic acid] | 0.025 (≈ 0.0551 µM) | 0.1 (≈ 0.221 µM) | 0.1 (≈ 0.221 µM) | 0.1 (≈ 0.221 µM) | 0.1 (≈ 0.221 µM) | 1.56 (≈ 3.44 µM) | 3.13 (≈ 6.9 µM) | 0.1 (≈ 0.221 µM) | 0.1 (≈ 0.221 µM) | 0.2 (≈ 0.441 µM) | 0.2 (≈ 0.441 µM) | 0.39 (≈ 0.86 µM) | 0.78 (≈ 1.72 µM) | 1.56 (≈ 3.44 µM) | 0.1 (≈ 0.221 µM) | 0.78 (≈ 1.72 µM) | 12.5 (≈ 27.6 µM) | 0.2 (≈ 0.441 µM) | 0.78 (≈ 1.72 µM) | 0.1 (≈ 0.221 µM) | MIC [4, 23]: 0.05 µg/mL (≈ 0.11 µM); MIC (Escherichia coli NR 2630): 0.05 µg/mL (≈ 0.11 µM)
CN1COc2c(N3CCNC(c4ccccc4)C3)c(F)cc3c(=O)c(C(=O)O)cn1c23 (stereo not drawn) [Example 8] | 0.025 (≈ 0.0589 µM) | 0.39 (≈ 0.919 µM) | 0.39 (≈ 0.919 µM) | 0.39 (≈ 0.919 µM) | 0.39 (≈ 0.919 µM) | 6.25 (≈ 14.7 µM) | 0.78 (≈ 1.84 µM) | 0.025 (≈ 0.0589 µM) | 0.025 (≈ 0.0589 µM) | 0.05 (≈ 0.118 µM) | 0.05 (≈ 0.118 µM) | 0.2 (≈ 0.471 µM) | 0.39 (≈ 0.919 µM) | 0.39 (≈ 0.919 µM) | 0.025 (≈ 0.0589 µM) | 0.39 (≈ 0.919 µM) | 3.13 (≈ 7.37 µM) | 0.025 (≈ 0.0589 µM) | 0.1 (≈ 0.236 µM) | 0.025 (≈ 0.0589 µM) | MIC [4, 23]: 0.2 µg/mL (≈ 0.471 µM); MIC (Escherichia coli NR 2630): 0.013 µg/mL (≈ 0.0306 µM)
CN1COc2c(N3CCN(CS(=O)(=O)O)CC3)c(F)cc3c(=O)c(C(=O)O)cn1c23 [Example 52, disodium 9-fluoro-3-methyl-7-oxo-10-[4-(sulfonatomethyl)-1-piperazinyl]-2,3-dihydro-7H-pyrido-[3,2,1-ij]-1,3,4-benzoxadiazine-6-carboxylate] | 0.2 | – | 3.13 | 1.56 | 1.56 | 25 | 12.5 | 0.025 | 0.025 | 0.05 | 0.05 | 0.2 | 6.25 | 0.2 | 0.025 | 0.2 | 1.56 | 0.05 | 0.2 | 0.025 | MIC ([2]; Staphylococcus aureus): 0.39 µg/mL; MIC ([4]; Staphylococcus aureus): 0.39 µg/mL; MIC (Escherichia coli NR 2630): 0.025 µg/mL
CN1COc2c(N3CCOCC3)c(F)cc3c(=O)c(C(=O)O)cn1c23 [Example 9, 9-Fluoro-3-methyl-10-morpholino-7-oxo-2,3-dihydro-7H-pyrido[3,2,1-ij]-1,3,4-benzoxadiazine-6-carboxylic acid] | ≤ 0.0008 | 0.2 (≈ 0.573 µM) | 0.0065 (≈ 0.0186 µM) | 0.2 (≈ 0.573 µM) | 0.0065 (≈ 0.0186 µM) | 12.5 (≈ 35.8 µM) | 6.25 (≈ 17.9 µM) | 0.39 (≈ 1.12 µM) | 0.0065 (≈ 0.0186 µM) | 0.013 (≈ 0.0372 µM) | 0.1 (≈ 0.286 µM) | 3.13 (≈ 8.96 µM) | 1.56 (≈ 4.47 µM) | 1.56 (≈ 4.47 µM) | ≤ 0.0008 | 6.25 (≈ 17.9 µM) | 12.5 (≈ 35.8 µM) | ≤ 0.0008 | 0.78 (≈ 2.23 µM) | 0.0033 (≈ 0.00945 µM) | MIC [4, 23]: 0.0033 µg/mL (≈ 0.00945 µM); MIC (Escherichia coli NR 2630): ≤ 0.0008 µg/mL
COC1CCN(c2c(F)cc3c(=O)c(C(=O)O)cn4c3c2OCN4C)CC1 [Example 38, 9-fluoro-10-(4-methoxy-1-piperidyl)-3-methyl-7-oxo-2,3-dihydro-7H-pyrido[3,2,1-ij]-1,3,4-benzoxadiazine-6-carboxylic acid] | ≤ 0.0008 | 0.39 (≈ 1.03 µM) | 0.2 (≈ 0.53 µM) | 0.39 (≈ 1.03 µM) | 0.39 (≈ 1.03 µM) | 12.5 (≈ 33.1 µM) | 6.25 (≈ 16.6 µM) | 6.25 (≈ 16.6 µM) | 3.13 (≈ 8.29 µM) | 6.25 (≈ 16.6 µM) | 6.25 (≈ 16.6 µM) | 25 (≈ 66.2 µM) | 6.25 (≈ 16.6 µM) | 25 (≈ 66.2 µM) | 3.13 (≈ 8.29 µM) | 25 (≈ 66.2 µM) | 50 (≈ 132 µM) | 6.25 (≈ 16.6 µM) | 12.5 (≈ 33.1 µM) | 6.25 (≈ 16.6 µM) | MIC [4, 23]: 0.1 µg/mL (≈ 0.265 µM); MIC (Escherichia coli NR 2630): 0.39 µg/mL (≈ 1.03 µM)
CNC1CCN(c2c(F)cc3c(=O)c(C(=O)O)cn4c3c2OCN4C)C1 (stereo not drawn) [Example 31] | 0.05 (≈ 0.138 µM) | 0.39 (≈ 1.08 µM) | 0.78 (≈ 2.15 µM) | 0.39 (≈ 1.08 µM) | 0.39 (≈ 1.08 µM) | 12.5 (≈ 34.5 µM) | 3.13 (≈ 8.64 µM) | 0.05 (≈ 0.138 µM) | 0.025 (≈ 0.069 µM) | 0.05 (≈ 0.138 µM) | 0.05 (≈ 0.138 µM) | 0.2 (≈ 0.552 µM) | 3.13 (≈ 8.64 µM) | 0.39 (≈ 1.08 µM) | 0.025 (≈ 0.069 µM) | 0.2 (≈ 0.552 µM) | 1.56 (≈ 4.31 µM) | 0.025 (≈ 0.069 µM) | 0.2 (≈ 0.552 µM) | 0.025 (≈ 0.069 µM) | MIC [4, 23]: 0.2 µg/mL (≈ 0.552 µM); MIC (Escherichia coli NR 2630): 0.025 µg/mL (≈ 0.069 µM)
CN1CCN(c2c(F)cc3c(=O)c(C(=O)O)cn4c3c2OC(CO)N4C)CC1 (stereo not drawn) [Example 27] | 0.39 (≈ 0.994 µM) | 1.56 (≈ 3.98 µM) | 12.5 (≈ 31.9 µM) | 6.25 (≈ 15.9 µM) | 6.25 (≈ 15.9 µM) | 50 (≈ 127 µM) | 50 (≈ 127 µM) | 0.2 (≈ 0.51 µM) | 0.2 (≈ 0.51 µM) | 0.78 (≈ 1.99 µM) | 0.78 (≈ 1.99 µM) | 3.13 (≈ 7.98 µM) | 25 (≈ 63.7 µM) | 12.5 (≈ 31.9 µM) | 0.2 (≈ 0.51 µM) | 3.13 (≈ 7.98 µM) | 25 (≈ 63.7 µM) | 0.2 (≈ 0.51 µM) | 3.13 (≈ 7.98 µM) | 0.39 (≈ 0.994 µM) | MIC [4, 23]: 1.56 µg/mL (≈ 3.98 µM)
